# Like-named read-outs stand apart in the source and are kept apart here.
# What was measured:
# [1] = molecular target: T1, GSPT1 (Homo sapiens, UniProt P15170+Q96SW2); assay: GSPT1 degradation immunofluorescence assay in CAL-51 cells; format: cell-based; conditions: 6 hours treatment
# T1 construct: CAL-51 cells were purchased from DSMZ (cat. Number ACC302); host or cells: CAL-51 cells
# Description: CAL-51 cells were purchased from DSMZ (cat. Number ACC302), sub-cultured in 90% Dulbecco's MEM (4.5 g/L glucose, Gibco 11965)+10% heat inactivated FBS (BioConcept, 2-01F1361) and incubated at 37° C., 5% CO2. For the assay, imaging microtiterplate Cell Carrier 96 Ultra (Perkin Elmer 6055302) were pre-coated with Fibronectin (Sigma F085, 30 μl at 0.2 μg/ml) in PBS (100p, Gibco 14190) for 45 min at room temperature, rinsed with PBS and CAL-51 cells (30K cells/well) were plated and let to adhere overnight. Cells were treated with compounds typically using a serial dilution ranging from 30 μM to 0.1 nM for 6 hours. Compounds were stored at 10 mM DMSO stocks. Vehicle (DMSO), positive (CC-885, 10 μM) and rescue controls (positive control plus 0.2 μM bortezomib) were also included at this stage. Cells were subsequently rinsed with PBS and fixed in 10% Formalin solution (50p, Sigma HT5011)) for 20 mins at room temperature. Following three consecutive PBS washes (100 μl), cells were permeabilized in 0.1% Triton X-100 in PBS (Sigma 93443, 50 μl) for 15 mins at room temperature. Following three further PBS washes, 50 μl blocking buffer (1% BSA, Sigma A4503, in PBS) was added for 45 min for signal-to-noise reduction. Primary antibody (human GSPT1, Sigma HPA052488) was diluted in blocking buffer (dil.1/300, 35 μl/well) and incubated with the cells overnight at 4° C. After three PBS washes, Alexa-fluor 488 coupled secondary antibodies (Invitrogen, A32731, dil. 1/1000), Alexa-fluor 647-Phalloïdin (Invitrogen, A22287, dil. 1/200) and DAPI (Thermo, #62248, dil.1/1000) were diluted in blocking buffer and incubated with the samples for 2 hours at room temperature. After three final PBS washes, samples were conserved in 100 μl PBS in the dark, until measurement. Image acquisition was performed on the Operetta High-Content Imager (Perkin-Elmer). Fluorescence intensity of Alexa-Fluor 488 (GSPT1), Alexa-Fluor 647 (Actin) and DAPI (Nucleus) were measured. For the determination of GSPT1 DC50 values, a custom algorithm implemented in the PerkinElmer image analysis software Harmony-Acapella@ was developed. After user-defined setting of adjustment parameters, the analysis was run identically without human intervention for all image fields. DAPI staining of the nuclei was used to determine the location of cells using standard nuclei detection modules. Segmentation artifacts were removed by threshold-based filters for area, roundness and intensity. The outline of the cells was determined analogously from the sum of the normalized, smoothed DAPI and Actin channel, starting from each nucleus.
# The Alexa-Fluor 488 (GSPT1) signal intensity in each cell was finally measured, in order to obtain a Mean intensity per cell. GSPT1 degradation (DC50) was calculated after normalization to controls and data import in CDD vault Database, using non-linear regression.
# [2] = molecular target: T2, Full length wild-type cereblon CRBN (Homo sapiens, UniProt Q96SW2); assay: Fluorescence polarization (FP) assay indicating cereblon binding
# T2 construct: Full length wild-type cereblon CRBN (80.0 nM, 10 μL) was incubated in assay buffer
# Description: Compound activity was monitored in a fluorescence polarization (FP) homogeneous assay using 1-[5-({2-[2-(2-{[2-(2,6-dioxopiperidin-3-yl)-1,3-dioxo-2,3-dihydro-1H-isoindol-4-yl]oxy}acetamido)ethoxy]ethyl}carbamoyl)pentyl]-3,3-dimethyl-2-[(1E,3E)-5-[(2E)-1,3,3-trimethyl-5-sulfo-2,3-dihydro-1H-indol-2-ylidene]penta-1,3-dien-1-yl]-3H-indol-1-ium-5-sulfonate as a fluorescent probe. Unless otherwise stated, all reagents were purchased from Sigma Aldrich. Enzymatic reactions were conducted in Perkin-Elmer Black 384 well ProxiPlate Plus (catalogue no. 6008269) in 10 μL total volume. Full length wild-type cereblon CRBN (80.0 nM, 10 μL) was incubated in assay buffer containing 20 mM HEPES (pH 8.0), […], 0.5 mM TCEP and 0.05% Tween 20 in the presence or absence of compound (300 nL). Inhibitors were stored as 10 mM DMSO stocks in an inert environment (low humidity, dark, low oxygen, room temperature) using the Storage Pod System. Compounds and DMSO were dispensed using the Echo E5XX (Labcyte Inc. USA) to give concentrations from 300 to 0.937 or 3000 to 9.3 nM in a 12 data point curve. […] Following incubation at room temperature for 30 min, the assay was initiated by dispensing the probe to a final concentration of 5 nM (2.5 nL of a 20 μM stock) using the Echo E5XX. FP was measured after a period of 12 hours using a Pherastar plate reader (BMG Labtech, Germany) exciting at 590 nm and measuring the amount of parallel and perpendicular light at 675 nm. The FP signal was subsequently normalized to the no-compound control (i.e., DMSO). Analysis and IC50 values were derived using Dotmatics (Dotmatics UK) software.
# [3] = tested on: HBE16 cells; assay: Killing activity (EC10) in HBE16 cells after 72 hr; format: cell-based, human
# [4] = tested on: G542X cystic fibrosis transmembrane conductance regulator (CFTR) nonsense mutation; assay: HaloTag G542X 5×5 NanoLuc reporter assay (CFTR readthrough) in HBE16 cells; format: cell-based, human
# Description: FIG. 3A, FIG. 3B, and FIG. 3C show the effect of a representative compound of the disclosure on CFTR readthrough: Readthrough of the common G542X cystic fibrosis transmembrane conductance regulator (CFTR) nonsense mutation was carried out in the immortalized human bronchial epithelial cells HBE16. A HaloTag G542X 5×5 NanoLuc reporter assay was established in that cell line containing the CFTR readthrough cassette bearing the G542X codon as well as 5 codons upstream and downstream from the human CFTR sequence. […] The total protein assay (C) indicates no significant decrease of HBE16 cell viability following treated with the representative compound of the disclosure alone or in combination with G418 (y-axis left indicating protein μg/μL, and y-axis right indicating %).
# The total protein assay (C) indicates no significant decrease of HBE16 cell viability following treated with the representative compound of the disclosure alone or in combination with ELX-02 (y-axis left indicating protein μg/μL, and y-axis right indicating %).
# [5] = compounds 1 to 165, read-out: Activity for GSPT1 degradation (DC50 code)
# [6] = compounds 201 to 307, read-out: Activity for GSPT1 degradation (DC50 code)
# T2 sequence (Q96SW2 whole entry): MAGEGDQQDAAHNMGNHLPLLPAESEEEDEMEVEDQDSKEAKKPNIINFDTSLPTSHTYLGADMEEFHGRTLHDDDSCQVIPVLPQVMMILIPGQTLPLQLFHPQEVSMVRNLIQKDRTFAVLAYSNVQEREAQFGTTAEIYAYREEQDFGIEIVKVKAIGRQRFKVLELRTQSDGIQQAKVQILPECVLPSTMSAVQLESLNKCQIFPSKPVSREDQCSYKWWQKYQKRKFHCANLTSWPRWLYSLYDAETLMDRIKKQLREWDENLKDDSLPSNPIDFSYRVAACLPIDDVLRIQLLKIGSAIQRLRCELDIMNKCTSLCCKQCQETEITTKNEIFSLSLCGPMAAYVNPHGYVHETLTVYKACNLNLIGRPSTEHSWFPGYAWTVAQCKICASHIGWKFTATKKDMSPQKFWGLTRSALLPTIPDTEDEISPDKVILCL
# T1 sequence (P15170 whole entry): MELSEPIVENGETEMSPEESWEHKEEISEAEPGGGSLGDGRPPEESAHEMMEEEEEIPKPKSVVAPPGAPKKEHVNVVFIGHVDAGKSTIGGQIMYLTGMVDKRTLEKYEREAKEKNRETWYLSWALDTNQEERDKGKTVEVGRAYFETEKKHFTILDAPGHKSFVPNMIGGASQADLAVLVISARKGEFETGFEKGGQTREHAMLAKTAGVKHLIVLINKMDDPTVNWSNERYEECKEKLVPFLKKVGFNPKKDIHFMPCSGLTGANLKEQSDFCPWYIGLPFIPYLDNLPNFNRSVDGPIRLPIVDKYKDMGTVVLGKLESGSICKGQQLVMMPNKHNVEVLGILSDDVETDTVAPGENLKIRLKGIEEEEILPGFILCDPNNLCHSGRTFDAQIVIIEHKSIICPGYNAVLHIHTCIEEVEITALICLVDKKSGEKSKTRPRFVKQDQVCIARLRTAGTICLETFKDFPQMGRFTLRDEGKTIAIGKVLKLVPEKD
# T1 sequence (Q96SW2 whole entry): as the sequence (Q96SW2 whole entry) above
# T1 sequence (Q16531 whole entry partner): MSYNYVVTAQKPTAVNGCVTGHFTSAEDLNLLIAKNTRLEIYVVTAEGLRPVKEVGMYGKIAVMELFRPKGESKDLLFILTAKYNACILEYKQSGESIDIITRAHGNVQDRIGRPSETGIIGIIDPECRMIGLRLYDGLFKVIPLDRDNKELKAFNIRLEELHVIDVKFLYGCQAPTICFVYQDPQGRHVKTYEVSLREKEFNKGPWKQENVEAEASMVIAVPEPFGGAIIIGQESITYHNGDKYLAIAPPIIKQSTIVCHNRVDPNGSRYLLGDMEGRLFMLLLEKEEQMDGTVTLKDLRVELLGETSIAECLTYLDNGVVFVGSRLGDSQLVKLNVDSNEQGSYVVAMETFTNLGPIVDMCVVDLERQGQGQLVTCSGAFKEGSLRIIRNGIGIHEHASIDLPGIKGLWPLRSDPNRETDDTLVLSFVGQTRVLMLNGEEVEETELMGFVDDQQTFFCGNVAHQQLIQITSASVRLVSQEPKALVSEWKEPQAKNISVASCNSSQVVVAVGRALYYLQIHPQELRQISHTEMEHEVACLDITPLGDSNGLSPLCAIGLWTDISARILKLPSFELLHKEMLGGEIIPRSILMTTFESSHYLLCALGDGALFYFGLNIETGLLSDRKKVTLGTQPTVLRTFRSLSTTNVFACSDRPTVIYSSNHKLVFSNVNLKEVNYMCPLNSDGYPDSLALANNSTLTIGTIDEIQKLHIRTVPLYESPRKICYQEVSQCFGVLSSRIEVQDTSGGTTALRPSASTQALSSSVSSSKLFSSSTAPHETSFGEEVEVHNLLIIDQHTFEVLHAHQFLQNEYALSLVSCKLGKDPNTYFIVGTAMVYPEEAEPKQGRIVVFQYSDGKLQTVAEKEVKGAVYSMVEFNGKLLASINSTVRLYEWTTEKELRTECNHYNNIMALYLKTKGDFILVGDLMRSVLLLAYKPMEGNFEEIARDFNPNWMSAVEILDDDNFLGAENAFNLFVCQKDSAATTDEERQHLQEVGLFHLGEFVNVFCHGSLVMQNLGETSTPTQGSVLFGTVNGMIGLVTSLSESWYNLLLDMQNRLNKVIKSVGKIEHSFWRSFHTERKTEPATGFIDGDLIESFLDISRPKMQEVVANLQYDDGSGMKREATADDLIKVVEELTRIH
IC50 [2] [nM],"DC50 [1, 6] [nM]",Compound,further results
< 1100,,Cc1c(Cl)cc(NC(=O)NCc2ccc3c(c2)C(=O)N(C2CCC(=O)NC2=O)C3)cc1CN1CC2CCC(C1)O2 (stereo not shown) [Compound 140],"DC50 [1, 5]: ≤ 100 nM"
< 1100,,Cc1c(Cl)cc(NC(=O)NCc2ccc3c(c2)C(=O)N(C2CCC(=O)NC2=O)C3)cc1CN1CCN2CCC1C2 (stereo not shown) [Compound 154],"DC50 [1, 5]: > 300 nM"
< 1100,,Cc1c(Cl)cc(NC(=O)NCc2ccc3c(c2)C(=O)N(C2CCC(=O)NC2=O)C3)cc1CC1COCCN1C (stereo not shown) [Compound 160],"DC50 [1, 5]: ≤ 100 nM"
< 1100,< 30,Cc1c(Cl)cc(NC(=O)OCc2ccc3c(c2)C(=O)N(C2CCC(=O)NC2=O)C3)cc1CN1CCOCC1 (stereo not shown) [Compound 202],
< 1100,< 30,O=C1CCC(N2Cc3ccc(COC(=O)Nc4cc(CN5CCOCC5)cc(OC(F)(F)F)c4)cc3C2=O)C(=O)N1 (stereo not shown) [Compound 204],
< 1100,< 30,Cc1ncc(NC(=O)OCc2ccc3c(c2)C(=O)N(C2CCC(=O)NC2=O)C3)cc1Cl (stereo not shown) [Compound 206],
< 1100,< 30,Cc1cc(C)cc(NC(=O)OCc2ccc3c(c2)C(=O)N(C2CCC(=O)NC2=O)C3)c1 (stereo not shown) [Compound 208],
< 1100,< 30,Cc1c(Cl)cc(NC(=O)OCc2ccc3c(c2)C(=O)N(C2CCC(=O)NC2=O)C3)cc1CN1CC2CC1CO2 (stereo not shown) [Compound 213],
< 1100,< 30,O=C1CCC(N2Cc3ccc(COC(=O)Nc4ccc(N5CCCCC5)nc4)cc3C2=O)C(=O)N1 (stereo not shown) [Compound 215],
< 1100,< 30,Cc1ccc(NC(=O)OCc2ccc3c(c2)C(=O)N(C2CCC(=O)NC2=O)C3)cc1OC(F)F (stereo not shown) [Compound 224],
< 1100,< 30,Cc1c(CN2CCOCC2)cc(NC(=O)OCc2ccc3c(c2)C(=O)N(C2CCC(=O)NC2=O)C3)cc1OC(F)F (stereo not shown) [Compound 225],
< 1100,< 30,O=C1CCC(N2Cc3ccc(COC(=O)Nc4ccc(C5CC5)cc4)cc3C2=O)C(=O)N1 (stereo not shown) [Compound 239],
< 1100,< 30,Cc1c(F)cc(NC(=O)OCc2ccc3c(c2)C(=O)N(C2CCC(=O)NC2=O)C3)cc1CN1CCOCC1 (stereo not shown) [Compound 241],
< 1100,< 30,CCc1cc(NC(=O)OCc2ccc3c(c2)C(=O)N(C2CCC(=O)NC2=O)C3)cnc1C (stereo not shown) [Compound 255],
< 1100,< 30,CC1(c2ccc(NC(=O)OCc3ccc4c(c3)C(=O)N(C3CCC(=O)NC3=O)C4)cc2)CC1 (stereo not shown) [Compound 258],
< 1100,< 30,Cc1c(Cl)cc(NC(=O)OCc2ccc3c(c2)C(=O)N(C2CCC(=O)NC2=O)C3)cc1OC1CCN(C)C1 (stereo not shown) [Compound 268],
< 1100,< 30,CC1CCCCN1c1ccc(NC(=O)OCc2ccc3c(c2)C(=O)N(C2CCC(=O)NC2=O)C3)cn1 (stereo not shown) [Compound 277],
< 1100,< 30,CC1(C)COc2cc(NC(=O)OCc3ccc4c(c3)C(=O)N(C3CCC(=O)NC3=O)C4)ccc21 (stereo not shown) [Compound 283],
< 1100,< 30,Cc1ccccc1-c1ccc(NC(=O)OCc2ccc3c(c2)C(=O)N(C2CCC(=O)NC2=O)C3)cn1 (stereo not shown) [Compound 286],
< 1100,< 30,COc1ccccc1-c1ccc(NC(=O)OCc2ccc3c(c2)C(=O)N(C2CCC(=O)NC2=O)C3)cn1 (stereo not shown) [Compound 287],
< 1100,< 30,Cc1cc(NC(=O)OCc2ccc3c(c2)C(=O)N(C2CCC(=O)NC2=O)C3)cnc1-c1ccccc1 (stereo not shown) [Compound 288],
< 1100,< 30,Cc1ncc(NC(=O)OCc2ccc3c(c2)C(=O)N(C2CCC(=O)NC2=O)C3)cc1OC(F)(F)F (stereo not shown) [Compound 291],
< 1100,< 30,O=C1CCC(N2Cc3ccc(COC(=O)Nc4ccc5c(c4)OCCC5)cc3C2=O)C(=O)N1 (stereo not shown) [Compound 292],
,,C[C@@H](N)[C@H]1O[C@@H](O[C@@H]2[C@@H](O)[C@H](N)C[C@H](N)[C@H]2O[C@H]2O[C@H]([C@@H](C)O)[C@@H](O)[C@H](O)[C@H]2N)[C@H](O)[C@@H]1O [ELX-02],"EC10 (concentration resulting in 10% killing activity) [3]: 85000 nM; EC50 [4]: 250000 nM; EC10 (readthrough activity, NanoLuc) ([4]; concentration used in combination): 85000 nM"

# Source: US20240216355A1, “PHARMACEUTICAL COMPOSITIONS FOR USE IN THE PREVENTION AND TREATMENT OF A DISEASE OR DISORDER CAUSED BY OR ASSOCIATED WITH ONE OR MORE PREMATURE TERMINATION CODONS” (Monte Rosa Therapeutics, Inc., priority 2021, published 2024)
